Data taken from article PMC3979046 (Breast Cancer Research : BCR, 2013).
Like-named read-outs stand apart in the source and are kept apart here.

Key:
HER3 = test system: HER3; parameters: method as in PMID 21215704; settings: via feedback mechanisms ref 11; cited from earlier work
[1] = test system: recombinant human AKT1, AKT2 and AKT3; settings: cited from earlier work
[2] = test system: patients with HER2+ solid tumors; settings: in combination with trastuzumab, true MTD not established
Procedure: This phase 1, multicenter, open-label, nonrandomized, dose-defining study was conducted in accordance with the Declaration of Helsinki and the International Conference on Harmonisation Good Clinical Practice Guidelines, and was approved by relevant regulatory and independent ethics committees including Memorial Sloan-Kettering Cancer Center’s Institutional Review Board, Mofftt Cancer Center’s Quorum Review Institutional Review Board, and The National Research Ethics Service, The Royal Marsden Research Ethics Committee. Patients provided written consent prior to enrolling in the trial. […] Dose finding was based on toxicity probability intervals. In brief, three patients were first dosed at each level and advanced according to the toxicity probability interval; up to another 10 patients (total of 13 patients at a dose level) could be assigned to one dose, in which case up to four DLT events in the dose level of 13 patients would be considered tolerable. […] Correlation of antitumor activity with PI3K pathway activation events (that is, circulating tumor DNA and mutations) was an exploratory objective of this trial.
Patients were evaluated at baseline and throughout the course of the study using physical examinations, vital signs, ophthalmologic examinations, 12-lead electrocardiogram cardiac monitoring, laboratory tests, and Eastern Cooperative Oncology Group performance status.

[3] = test system: patients with solid tumors; parameters: method as in PMID 22025163; settings: cited from earlier work
cytochrome p450 3A4 = settings: cited from earlier work
[4] = Plasma pharmacokinetics of MK-2206 given with trastuzumab; settings: for Tmax: human, plasma, oral
[5] = human, in vivo
[6] = prior phase 1 studies ref 13; cited from earlier work
[7] = test system: HER2+ metastatic breast cancer patients refractory to trastuzumab; parameters: method as in PMID 22689807; settings: phase 3 trial, 296 patients, no chemotherapy ref 21; cited from earlier work

## NC1(c2ccc(-c3nc4ccn5c(=O)[nH]nc5c4cc3-c3ccccc3)cc2)CCC1 [MK-2206]
HER3
  effect on HER3: upregulate HER3
[1]
  off-target kinase activity: little off-target kinase activities
[1]; recombinant human isoforms ref 12
  relative potency against AKT isoforms: higher potency against recombinant human AKT1 and AKT2 isoforms than AKT3
[2]; QOD schedule
  maximum tolerated dose (MTD): 60 mg
[2]; QW schedule
  maximum tolerated dose (MTD): 135 mg
[3]; monotherapy ref 13
  most significant dose-limiting toxicity (DLT): rash
[3]; monotherapy, QOD ref 13
  maximum tolerable dose (MTD): 60 mg
[3]; monotherapy, QW, not established due to early discontinuation ref 13
  maximum tolerable dose (MTD), expected: less than 250 mg
Cytochrome p450 3A4
  metabolizing enzyme: metabolized by cytochrome p450 3A4
[4]; 45 mg or 60 mg QOD with trastuzumab
  patients with trough level at or above the clinical monotherapy efficacy trough target of 56.8 nM: 11/11
[4]; 200 mg QW, multiple dosing for 21 to 22 days
  geometric mean ratio of Cmax (last dose/first dose): 1.30
[4]
  Tmax: 4 to 6 h
[4]; median time to maximum concentration, 135 mg and 200 mg QW with trastuzumab
  Tmax: 4 to 8 h
[5]
  patients achieving the 48-hour target of at least 56.8 nM: ~ 92%
[6]
  dose proportionality: no substantial departure from dose proportionality

## CS(=O)(=O)CCNCc1ccc(-c2ccc3ncnc(Nc4ccc(OCc5cccc(F)c5)c(Cl)c4)c3c2)o1 [lapatinib]
[7]
  median progression-free survival: 8.1 weeks
